By GI50 is commonly meant the concentration giving 50% growth inhibition. The T/C is the result in the treated group divided by that in the control group, in per cent.

Each structure is given as a SMILES string.

Experiment [1] deals with BT474. As to the kind of experiment: Cell proliferation in BT474 breast cancer model. It is filed as cell-based, human.
Experiment [2] concerns BT-474 tumors. As to the kind of experiment: BT474 orthotopic xenograft, Compound A and trastuzumab combination (Example 3). It is filed as in vivo, mice. How it is done:
The Compound was fully dissolved in NMP. Then, PEG300 and liquified Solutol were added (in sequence with vortexing after addition of each reagent).
Where applicable, data is presented as mean±SEM.

In experiment [3] the test system is NCI-N87 tumors. As to the kind of experiment: NCI-N87 xenograft in CB17 SCID mice, Compound A alone and with trastuzumab (Example 4). It is filed as in vivo. How it is done:
Experiments were performed in female CB17 SCID mice (Fox Chase SCID®, CB17/lcr-Prkdc^scid, Charles River) approximately 7-8 weeks of age and having a body weight (BW) range of 14.7-21.2 g at treatment start. All animals were fed ad libitum water (reverse osmosis, 1 ppm CI) and NIH 31 Modified and Irradiated Lab Diet® consisting of 18.0% crude protein, 5.0% crude fat, and 5.0% crude fiber. The mice were housed on irradiated Enrich-O'cobs™ Laboratory Animal Bedding in static microisolators on a 12-hour light cycle at 21-22° C. and 40-60% humidity.
NCI-N87 cells (obtained from the American Type Culture Collection), which are of gastric origin and ErbB2 amplified, were maintained as exponentially growing cultures in RPMI-1640 medium supplemented with 10% fetal bovine serum, 2 mM glutamine, 100 units/mL penicillin G sodium, and 100 μg/mL streptomycin sulfate. The tumor cells were cultured in tissue culture flasks in a humid incubator at 37° C., in an atmosphere of 5% CO2 and 95% air. Cells were harvested with 1× trypsin and suspended at a concentration of 5×10^7 cells/mL in cold phosphate-buffered saline with 50% Matrigel. Each mouse was injected subcutaneously in the right flank with 1×10^7 cells (0.2 mL cell suspension). Tumor volumes were measured with calipers and determined according to the formula: width^2×length/2, and tumor weight estimated with the assumption that 1 mg is equivalent to 1 mm^3 of tumor volume. Nine days after tumor implantation (on Day 1 of the study), mice with individual tumor volumes of 126-320 mm^3 were sorted into 12 groups of eight mice with a group mean tumor volume of 231-239 mm^3.
Compound A was formulated in NMP/PEG300/Solutol HS15/deionized water (10:30:20:40% vol/vol). The Compound was fully dissolved in NMP. Then, PEG300 and liquified Solutol were added (in sequence with vortexing after addition of each reagent). Water was added prior to administration to the animals. Fresh dosing solutions were prepared weekly and stored at 4° C., protected from light.
Treatments started 9 days post tumor cell implantation and lasted for 30 consecutive days (or until tumor volume=2000 mm^3).
Where applicable, data is presented as mean±SEM. Statisticial and graphical analyses was performed with Prism 3.03 (GraphPad) for Windows. For all tests, the level of significance of differences was done using ANOVA, with Bartlett's test; and a post-hoc Dunnett's multiple comparison test compared the mean change for each drub-treated group to the mean for Group 1. […] The significance of differences between the median volume changes for drug-treated groups and Group 1 was analyzed post hoc with Dunn's multiple comparison test. The two-tailed statistical analyses were conducted at P=0.05. Prism summarizes test results as not significant (ns) at P>0.05, significant (symbolized by “*”) at 0.01<P≤0.05, very significant (symbolized by “**”) at 0.001<P≤0.01, and extremely significant (symbolized by “***”) at P≤0.001.

The test system of experiment [4] is HBCx-5 xenograft tumor. As to the kind of experiment: HBCx-5 breast cancer xenograft, antitumor activity (Example 5). It is filed as in vivo, mice. The following applies: Compound A 50 mg/kg p.o. daily for 42 days, single agent; p<0.001. How it is done: Compound A was suspended at mg/ml in 0.5% methylcellulose (Sigma Aldrich, St. Louis, Mo.). It was homogenized by stirring vortexing and sonication. The suspension was stored at 4° C. for 7 days protected from light. […] Stock solution at 21 mg/ml was diluted just before administration at 1 mg/ml with sterile water for injection. Capecitabine (Xeloda®, Roche) at […] was kept at 4° C. protected from light. Capecitabine pellets were crushed and suspended in NaCl 0.9%.
Dose was body weight adjusted at each injection.
Capecitabine was administered by oral gavage (p.o.) at […], five times per week for two weeks (i.e., five consecutive dosing days/week). After a one week rest, a second treatment cycle was performed.

The mark [5] stands for this setting: Group 2 (8 animals): Compound A 12.5 mg/kg p.o. once daily.
[6] abbreviates: Group 3 (6 animals): Compound A 25 mg/kg p.o. once daily.
Setting [7] is: Group 4 (4 animals): Compound A 50 mg/kg p.o. once daily, stopped early.

Regarding `Cc1nc(NC(=O)N2CCC[C@H]2C(N)=O)sc1-c1ccnc(C(C)(C)C(F)(F)F)c1` [Compound A, (S)-Pyrrolidine-1,2-dicarboxylic acid 2-amide 1-({4-methyl-5-[2-(2,2,2-trifluoro-1,1-dimethyl-ethyl)-pyridin-4-yl]-thiazol-2-yl}-amide)], in experiment [1] (BT474, overexpressed ErbB2), the cell death entry is “induces cell death”. The 50% growth inhibitory concentration (GI50) in experiment [1] (BT474 breast cancer model, ErbB2 amplified, read-out: median GI50) amounted to 139 ± 82 nM. Moreover, the “Change Tumor Volume” value in experiment [2] (B: Compound A 12.5 mg/kg p.o. daily, control C 584.2) is given as 125.7. Also, the T/C in experiment [2] (Compound A 12.5 mg/kg p.o. daily, single agent) came to 21.5%; in experiment [4], 17.57%. Further, the antitumor effect entry in experiment [2] (Compound A 50 mg/kg p.o. daily, single agent, p<0.05 Mann-Whitney) is given as “statistically significant antitumor effect”. Moreover, the B/C in experiment [2] (change tumor volume ratio, Compound A 12.5 mg/kg vs control) is 0.215. For the same molecule, the “Regressions CR (complete regression)” value in experiment [3] (setting [5]), in experiment [3] (setting [6]) and in experiment [3] (setting [7]) was “CR: 0” each time. The “Regressions PR (partial regression)” value in experiment [3] (setting [5]), in experiment [3] (setting [6]) and in experiment [3] (setting [7]) was “PR: 0,” in each case. Besides, the “T/C or T/T0” value in experiment [3] (Group 2 (8 animals): Compound A 12.5 mg/kg p.o. once daily, vs G1 ns) is given as 46%; in experiment [3] (Group 3 (6 animals): Compound A 25 mg/kg p.o. once daily, vs G1 *), 12%; in experiment [3] (Group 4 (4 animals): Compound A 50 mg/kg p.o. once daily, stopped early, vs G1 ne), 81%.

Values taken from patent publication US20200022967A1, “Use of 2-carboxamide cycloamino urea derivatives in the treatment of EGFR dependent diseases or diseases that have acquired resistance to agents that target EGFR family members” (Novartis AG, priority 2010, published 2020).
